Test results: US20050203011A1, “Mitigating symptoms and behaviors of substance abuse by modulating GDNF or BDNF pathway activity” (The Regents of the University of California, priority 2003, published 2005)

Legend:
Male Long Evans rats = assay: Ethanol and sucrose self-administration in the two-bottle preference test; assay type: in vivo, rat; conditions: ibogaine i.p.
From the text: Male Long Evans rats were allowed continuous access to two bottles, one containing 10% ethanol (10 E) in tap water and the other containing tap water. […] Each subject received each dose, with one injection per week. Next, subjects were exposed to 2 bottles, one containing 10% sucrose (10 S) in tap water and the other containing tap water.

rats [1] = assay: Ethanol operant self-administration after systemic ibogaine; assay type: in vivo, rat; conditions: 40 mg/kg i.p., 3 hours prior to session
From the text: Rats were water restricted, and then trained to lever press for a 10 S/10 E reinforcer solution in 3 overnight sessions. On the 4th day, rats were allowed ad libitum access to water in the home cage, and were transferred to 1-hour daily sessions wherein responses were reinforced with 5 S/10 E on a fixed-ratio 3 (FR3) schedule. Sucrose was phased out of the reinforcer solution over the next 7 days until the solution consisted of 10 E only. Experimental manipulations began after 30 sessions when stable 10 E intake of >0.4 g/kg ethanol was attained.

rats [2] = assay: VTA microinjection of ibogaine, ethanol operant self-administration; assay type: in vivo, rat
Experimental: After ethanol self-administration was established as described above, subjects attained a mean daily intake of ethanol of 0.62±0.07 g/kg. Bilateral guide cannula (26 gauge, Plastics One) were implanted into the VTA (5.6 mm posterior to bregma, 1.0 mm mediolateral, 8.0 mm ventral to the skull surface). After 7 to 10 days recovery, sham injections were conducted prior to ethanol self-administration sessions to habituate subjects to the microinjection procedure. […] Injection cannulae were left in place for an additional 2 minutes to allow for diffusion of the drug. Three, 24 and 48 hours post injection, rats were placed into the self-administration chambers for a 1-hour self-administration session.

GDNF [3] = assay: GDNF expression in the midbrain after i.p. ibogaine (RT-PCR), rats; assay type: in vivo, rat; conditions: 40 mg/kg i.p., 1, 6 or 12 h post injection
Experimental: (§1) Total RNA was isolated using Trizol reagent and reverse transcribed using Reverse Transcription System kit with the oligo (dT)15 primer at 42ûC for 30 minutes. GDNF, Actin or GPDH expressions were analyzed by RT-PCR. The GDNF primers were based on the coding frame of the human GDNF gene: upstream, 5′-TGCCAGAGGATTATCCTGATCAGTTCG ATG3′ (SEQ ID NO: 1); and downstream, 5′-TTGTCGTACGTTGTCTCAGCTGCATCGCAA-3′ (SEQ ID NO:2). The Actin primers were based on the human Actin gene: upstream, 5′-TCATGAAGTGTGACGTTGACATC-3′ (SEQ ID NO:3); and downstream, 5′-AGAAGCATTTGCGGTGGACGATG-3′ (SEQ ID NO:4). The GPDH primers were based on the rat GPDH gene: upstream, 5′-TGAAGGTCGGTGTCAACGGATTTGGC-3′ (SEQ ID NO:5); and downstream, 5′-CATGTAGGCCATGAGGTCCACCAC-3′ (SEQ ID NO:6). PCR conditions were optimized to specifically ensure that the amplification reactions are within the linear range by testing a range of 25-40 PCR cycles. The optimal numbers of cycles used were: 30 cycles for controls GPDH and actin and 35 cycles for GDNF.
Male C57B16 mice or Long Evans rats were habituated with 3 saline injections over 3 days followed by i.p. administration of 40 mg/kg ibogaine-HCl. The animals were sacrificed 1, 6 or 12 hours post injection, and brain regions were excised and stored at −80° C. until use for analysis of GDNF expression by RT-PCR.

GDNF [4] = assay: GDNF expression in SHSY5Y cells (RT-PCR); assay type: cell-based, human
Experimental: SHSY5Y human neuroblastoma cells were grown in Dulbecco's modified Eagle's medium (DMEM) containing 10% fetal bovine serum (FBS) plus 100 units/ml penicillin and 100 μg/ml streptomycin. Prior to experiments, the medium was replaced with DMEM containing 1% FBS.
as §1, with “PCR conditions were optimized to specifically ensure that the amplification reactions are within the linear range by testing a range of 25-40 PCR cycles. The optimal numbers of cycles used were: 30 cycles for controls GPDH and actin and 35 cycles for GDNF.” left out
After completion of PCR, 10 μl of each product was separated by 1.8% agarose gel in Tris/acetic acid/EDTA buffer with 0.25N^og/ml ethidium bromide, photographed by Eagle Eye II (Stratagene), and quantified by NIH Image 1.61.

[5] = tested on: Ret association with GFRα1; assay: Ret association with GFRα1 in SHSY5Y cells (immunoprecipitation, Western blot); assay type: cell-based, human; conditions: 3 hours
Experimental: (§2) Expression of GDNF and control Actin were analyzed by RT-PCR (n=4). […] GDNF in the media was detected by an ELISA assay. Histogram depicts the mean±SD of GDNF secretion in 3 experiments. […] Ret was immunoprecipitated with anti-Ret antibodies followed by Western blot analysis with anti GFRα1 antibodies. The levels of GFRα1 in the homogenates were determined by Western blot analysis (n=3). […] Ret was immunoprecipitated followed by Western blot analysis with anti-phospho tyrosine or anti-Ret antibodies (n=3). […] Trk phosphorylation was analyzed by Western blot analysis with anti-phospho-Trk antibodies. The levels of TrkB were also determined by Western blot analysis (n=3). Panel F: Cells were pre-incubated with 0.3 unit/ml PI-PLC for 1 h (lanes 3 and 4). […] Ret phosphorylation was determined as described above (n=4). […] Treatment with 50 ng/ml GDNF was used as a positive control (lane 5). The cells were lysed and Ret phosphorylation was analyzed as described above (n=3).
Cells were collected and lysed in RIPA buffer (50 mM Tris-Cl, pH 7.6, 150 mM NaCl, 1 % NP40, 0.1% SDS, 0.5% sodium deoxycholate, 2 mM EDTA, protease inhibitor cocktail and 10 mM sodium orthovanadate). Homogenates were incubated with 5 N^og anti-Ret antibody in TBS-T buffer (20 mM Tris-Cl, pH7.6, 137 mM NaCl and 1% NP-40) overnight at 4° C., followed by 2 hours incubation with Protein G agarose. […]

Trk = Trk phosphorylation in SHSY5Y cells; assay type: cell-based, human; conditions: 10 μM ibogaine 3 hours
Experimental: as §2

ERK1/2 = ERK1/2 phosphorylation in SHSY5Y cells; assay type: cell-based, human; conditions: 10 μM ibogaine
Experimental: ERK2 and pERK1/2 were detected by Western blot analysis with anti-ERK2 and pERK1/2 antibodies respectively. Line-graph depicts the mean ratio (pERK2/ERK2)±SD of 3 experiments. […] Panel C: Cells were pre-incubated with 0.3 unit/ml PI-PLC for 1 h (lane 3).

rats [6] = assay: Intra-VTA minipump infusion of anti-GDNF neutralizing antibodies, ethanol self-administration after ibogaine; assay type: in vivo, rat; conditions: 3 hours after ibogaine 40 mg/kg i.p., control subjects (intra-VTA mouse IgG)
Experimental: An osmotic minipump (Alzet) was then connected to each of the two guide cannulae and was implanted subcutaneously for continuous infusion of either anti GDNF neutralizing antibodies (600 ng/12 N^ol/side/day) or mouse IgG (600 ng/12 μl/side/day).

With 12-methoxyibogamine [ibogaine] the ethanol intake (Male Long Evans rats; continuous access to ethanol in home cage, measured 24 hours after injection) was “reduced”, the preference for ethanol (Male Long Evans rats; continuous access, 24 hours after injection) was “reduced” and the “responding at the ethanol-paired lever” value (rats [1]) was “decreased”. For the same substance, the “lever responding for ethanol” value (rats [2]; intra-VTA 0.1 μM, any tested time point) was “did not differ from responding following vehicle”, the “lever presses for ethanol, return to baseline” value (rats [2]; intra-VTA 10 μM) was “did not return to baseline levels within 48 hours” and the “lever responding for ethanol” value (rats [2]; intra-VTA 10 μM, 3, 24 and 48 hours, vs vehicle) was “significantly reduced responding at all time points”. The ethanol-paired lever pressing (rats [2]; intra-VTA 0.1, 1.0 and 10.0 μM/0.5 μl, 3 hours before session, dose-dependent) was “significantly decreased”, the “expression of GDNF in the midbrain” value (GDNF [3]) was “increase” and the “duration of increase in GDNF expression” value (GDNF [4]) was “up to 12 hours”. The GDNF expression (GDNF [4]; 10 μM, dose- and time-dependent) was “increase”, the GFRα1 protein levels [5] was “not due to increased GFRα1 protein levels” and the “Ret association with GFRα1” value [5] was “increased”. For the same substance, the “phosphorylation state of Trk” value (Trk) was “no change”, the “duration of ERK1/2 activation” value (ERK1/2) was “up to 6 hours” and the “phosphorylation of ERK1/2” value (ERK1/2) was “induced”. The “decrease in responding for ethanol” value (rats [6]) was 79.1%.
